One data set deals with T1, thermolysin (Bacillus thermoproteolyticus, UniProt P00800).
T1 sequence (P00800 233-548): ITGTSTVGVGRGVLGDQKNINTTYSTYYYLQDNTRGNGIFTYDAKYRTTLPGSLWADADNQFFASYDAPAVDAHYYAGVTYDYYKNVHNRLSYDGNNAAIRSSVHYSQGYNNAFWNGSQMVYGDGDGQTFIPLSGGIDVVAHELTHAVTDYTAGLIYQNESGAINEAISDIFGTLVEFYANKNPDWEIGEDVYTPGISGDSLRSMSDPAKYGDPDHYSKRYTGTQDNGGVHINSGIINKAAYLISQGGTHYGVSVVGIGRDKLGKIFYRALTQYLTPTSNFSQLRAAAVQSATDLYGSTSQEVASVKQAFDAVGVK
Kind of data set: Thermolysin digestion of linker variants (half-life to thermolysin degradation, MALDI-TOF MS). It counts as in vitro ADME. As to conditions: for half-life: thermolysin in digestion buffer, average ± spread of three independent trials, quantitative MALDI-TOF MS; for half-life / Half-life to thermolysin degradation, Trial 1 / Half-life to thermolysin degradation, Trial 2 / Half-life to thermolysin degradation, Trial 3: thermolysin 1 µg/µL (25 µL) added to linker 2 µg/µL (25 µL), 50 mM Tris·HCl, 0.5 mM CaCl2, pH 8.0, 37 °C, aliquots 0-420 min; for half-life / Half-life to thermolysin degradation, Trial 2 / Half-life to thermolysin degradation, Trial 3: first-order exponential decay fit; for Half-life to thermolysin degradation, Trial 1: trial 1 of three independent trials, first-order exponential decay fit of full-length linker; for Half-life to thermolysin degradation, Trial 1 / Half-life to thermolysin degradation, Trial 2 / Half-life to thermolysin degradation, Trial 3: quantitative MALDI-TOF MS with internal standard; for Half-life to thermolysin degradation, Trial 2: trial 2 of three independent trials; for Half-life to thermolysin degradation, Trial 3: trial 3 of three independent trials. The text has this: O-Mannosylation is strongly preferred for proteolysis protection of a model fungal IDP. To investigate how glycan identity affects IDP proteolytic stability, we employed the naturally O-mannosylated linker from the Trichoderma reesei glycoside hydrolase family 7 cellobiohydrolase, TrCel7A, as a model.[10] This enzyme is one of the most important industrial cellulases and its linker is a well-studied O-mannosylated IDP.[11]–[14] The α-anomeric configuration was chosen since it is the only type reported so far in reducing terminal mannose residues of O-mannosylated proteins from fungi and yeasts.[8] We used […] glycopeptide synthesis[12],[15],[16] to produce four variants (Fig. 1), including the non-glycosylated linker, and measured the half-life to thermolysin degradation with MALDI-TOF MS (Fig. S1–S4 ^†).[15]–[19] […]
1.1. Experimental material and equipm ent
All commercial reagents and solvents were used as received. All LC-MS analyses were performed using a Waters Acquity TM Ultra Performance LC system equipped with Acquity UPLC® BEH 300 C4, 1.7µm, 2.1 x 100 mm column at flow rates of 0.3 mL/min. The mobile phase for LC -MS analysis was a mixture of H2O (0.1% formic acid, v /v, A) and acetonitrile (0.1% formic acid, v/v, B). […]
Mass spectrometric analysis done with a Waters SYNAPT G2-S LC-MS system was us ed to confirm the identity and homogeneity of the synthetic peptides. MALDI-TOF mas s spectrometr ic analysis done with an AB/Sciex Voyager DE-STR system was used to determine the proteolytic stability (half-life to thermolysin degradation) of the synthetic peptides (Fig. S1-S4). […]
1.3. General procedure for the thermolysin digestion of linker variants The thermolysin digestions were performed following previously described procedures.2 The digestion s of glycosylated linkers were carried out at 37 °C in 25 µL of digestion buffer (50 mM Tris·HCl buffer, 0.5 mM CaCl2, pH 8.0) with an initial linker concentration of 2 µg/µL. 25 µL of thermolysin (1 µg/µL in the digestion buffer) was added to linker solution; 1 µL aliquots were taken at specific time intervals (0, […]
µL of acetonitrile/H2O/AcOH (20/20/1, v/v) and 3 µL of standard solution [0.17 µg/µL non-glycosylated linker in acetonitrile/H2O/AcOH (20/20/1, v/v)]. Each sample was analyzed by quantitative MALDI-TOF MS to calculate the change in concentration of glycosylated linkers with time. The digestion rate was determined by monitoring and fitting data to the first-order exponential decay of the full-length glycosylated linkers over time. Digestion and analysis of non-glycosylat ed linker was done exactly a s described above for glycosylated linkers except that the Lman was used as the internal standard. All the digestion processes were repeated for three independent trials.
1.4. Temperature replica exchange simulations
Model syst ems. This work compares the dynamical and structural behavior of four variants of the Cel7A linker from Trichoderma reesei (TrCel7A). This set includes the non-glycosylated linker and the linker homogeneously decorated with O-linked α-mannosyl, α-glucosyl, and α-galactosyl moieties (Fig. S9A).
Complementary simulations and analyses were also performed with the linker decorated with longer glycans comprising mannobiosyl and galactobiosyl moieties, as well as with the putative natural decoration proposed by Harrison et al.3 (Fig. S9B) . A set of four variants of the “PT linker” was also studied, including the non -glycosylated linker and the variants with the same three glycans (Fig. S9C).
Finally, we also performed simulations of tripeptides with a single site of glyco sylation, resulting in the […]

These results are taken from PMC5939190, “The impact of O-glycan chemistry on the stability of intrinsically disordered proteins” (Chemical Science, 2018).

For orientation: half-life means how long it takes for the measured level to halve. Higher therefore signals slow decline.

Residues, ends and D or L forms follow the SMILES beside them. No end group written: not given here. *: point of attachment. αMan = OC[C@H]1O[C@H](*)[C@@H](O)[C@@H](O)[C@@H]1O; X2 = OC[C@H]1O[C@H](*)[C@H](O)[C@@H](O)[C@@H]1O; X1 = OC[C@H]1O[C@H](*)[C@H](O)[C@@H](O)[C@H]1O

For the compound `C[C@H](NC(=O)[C@@H]1CCCN1C(=O)[C@H](CCCNC(=N)N)NC(=O)[C@H](CCCNC(=N)N)NC(=O)[C@@H](NC(=O)[C@@H](NC(=O)[C@@H](NC(=O)[C@@H](NC(=O)CNC(=O)[C@@H]1CCCN1C(=O)[C@@H]1CCCN1C(=O)[C@H](CC(N)=O)NC(=O)CNC(=O)CNC(=O)[C@@H]1CCCN1C(=O)[C@@H]1CCCN1C(=O)[C@H](CC(N)=O)NC(=O)CN)[C@@H](C)O[C@H]1O[C@H](CO)[C@H](O)[C@H](O)[C@H]1O)[C@@H](C)O[C@H]1O[C@H](CO)[C@H](O)[C@H](O)[C@H]1O)[C@@H](C)O[C@H]1O[C@H](CO)[C@H](O)[C@H](O)[C@H]1O)[C@@H](C)O[C@H]1O[C@H](CO)[C@H](O)[C@H](O)[C@H]1O)C(=O)N[C@H](C(=O)N[C@H](C(=O)N[C@H](C(=O)NCC(=O)N[C@@H](CO[C@H]1O[C@H](CO)[C@H](O)[C@H](O)[C@H]1O)C(=O)N[C@@H](CO[C@H]1O[C@H](CO)[C@H](O)[C@H](O)[C@H]1O)C(=O)N1CCC[C@H]1C(=O)NCC(=O)N1CCC[C@H]1C(=O)O)[C@@H](C)O[C@H]1O[C@H](CO)[C@H](O)[C@H](O)[C@H]1O)[C@@H](C)O[C@H]1O[C@H](CO)[C@H](O)[C@H](O)[C@H]1O)[C@@H](C)O[C@H]1O[C@H](CO)[C@H](O)[C@H](O)[C@H]1O` [Lgal] (H-GNPPGGNPPGT(X1)T(X1)T(X1)T(X1)RRPAT(X1)T(X1)T(X1)GS(X1)S(X1)PGP-OH; N-terminus and C-terminus assumed), the enhancement of protection against proteolysis relative to non-glycosylated parent IDP amounted to 10 fold. On thermolysin, the half-life was 9.8 ± 2 min; the “Half-life to thermolysin degradation, Trial 1” value (shortened to “Half-life … Trial 1”) stood at 8.5 min; the “Half-life to thermolysin degradation, Trial 2” value (from here on “Half-life … Trial 2”) was 8.8 min; the “Half-life to thermolysin degradation, Trial 3” value (“Half-life … Trial 3” for short) turned out to be 12.1 min.

With `C[C@H](NC(=O)[C@@H]1CCCN1C(=O)[C@H](CCCNC(=N)N)NC(=O)[C@H](CCCNC(=N)N)NC(=O)[C@@H](NC(=O)[C@@H](NC(=O)[C@@H](NC(=O)[C@@H](NC(=O)CNC(=O)[C@@H]1CCCN1C(=O)[C@@H]1CCCN1C(=O)[C@H](CC(N)=O)NC(=O)CNC(=O)CNC(=O)[C@@H]1CCCN1C(=O)[C@@H]1CCCN1C(=O)[C@H](CC(N)=O)NC(=O)CN)[C@@H](C)O[C@H]1O[C@H](CO)[C@@H](O)[C@H](O)[C@H]1O)[C@@H](C)O[C@H]1O[C@H](CO)[C@@H](O)[C@H](O)[C@H]1O)[C@@H](C)O[C@H]1O[C@H](CO)[C@@H](O)[C@H](O)[C@H]1O)[C@@H](C)O[C@H]1O[C@H](CO)[C@@H](O)[C@H](O)[C@H]1O)C(=O)N[C@H](C(=O)N[C@H](C(=O)N[C@H](C(=O)NCC(=O)N[C@@H](CO[C@H]1O[C@H](CO)[C@@H](O)[C@H](O)[C@H]1O)C(=O)N[C@@H](CO[C@H]1O[C@H](CO)[C@@H](O)[C@H](O)[C@H]1O)C(=O)N1CCC[C@H]1C(=O)NCC(=O)N1CCC[C@H]1C(=O)O)[C@@H](C)O[C@H]1O[C@H](CO)[C@@H](O)[C@H](O)[C@H]1O)[C@@H](C)O[C@H]1O[C@H](CO)[C@@H](O)[C@H](O)[C@H]1O)[C@@H](C)O[C@H]1O[C@H](CO)[C@@H](O)[C@H](O)[C@H]1O` [Lglc] (H-GNPPGGNPPGT(X2)T(X2)T(X2)T(X2)RRPAT(X2)T(X2)T(X2)GS(X2)S(X2)PGP-OH; N-terminus and C-terminus assumed), at thermolysin, the half-life was 53.7 ± 8.1 min; the “Half-life … Trial 1” value came to 53.3 min; the “Half-life … Trial 2” value is 62.0 min; the “Half-life … Trial 3” value stood at 45.9 min.

In the case of `C[C@H](NC(=O)[C@@H]1CCCN1C(=O)[C@H](CCCNC(=N)N)NC(=O)[C@H](CCCNC(=N)N)NC(=O)[C@@H](NC(=O)[C@@H](NC(=O)[C@@H](NC(=O)[C@@H](NC(=O)CNC(=O)[C@@H]1CCCN1C(=O)[C@@H]1CCCN1C(=O)[C@H](CC(N)=O)NC(=O)CNC(=O)CNC(=O)[C@@H]1CCCN1C(=O)[C@@H]1CCCN1C(=O)[C@H](CC(N)=O)NC(=O)CN)[C@@H](C)O[C@H]1O[C@H](CO)[C@@H](O)[C@H](O)[C@@H]1O)[C@@H](C)O[C@H]1O[C@H](CO)[C@@H](O)[C@H](O)[C@@H]1O)[C@@H](C)O[C@H]1O[C@H](CO)[C@@H](O)[C@H](O)[C@@H]1O)[C@@H](C)O[C@H]1O[C@H](CO)[C@@H](O)[C@H](O)[C@@H]1O)C(=O)N[C@H](C(=O)N[C@H](C(=O)N[C@H](C(=O)NCC(=O)N[C@@H](CO[C@H]1O[C@H](CO)[C@@H](O)[C@H](O)[C@@H]1O)C(=O)N[C@@H](CO[C@H]1O[C@H](CO)[C@@H](O)[C@H](O)[C@@H]1O)C(=O)N1CCC[C@H]1C(=O)NCC(=O)N1CCC[C@H]1C(=O)O)[C@@H](C)O[C@H]1O[C@H](CO)[C@@H](O)[C@H](O)[C@@H]1O)[C@@H](C)O[C@H]1O[C@H](CO)[C@@H](O)[C@H](O)[C@@H]1O)[C@@H](C)O[C@H]1O[C@H](CO)[C@@H](O)[C@H](O)[C@@H]1O` [Lman] (H-GNPPGGNPPGT(αMan)T(αMan)T(αMan)T(αMan)RRPAT(αMan)T(αMan)T(αMan)GS(αMan)S(αMan)PGP-OH; N-terminus and C-terminus assumed), the “Improvement of proteolytic stability over the non-glycosylated linker LNG” value at thermolysin (ratio of half-lives to thermolysin degradation, relative to LNG) was found to be 112 fold. Also, on thermolysin (ratio of half-lives to thermolysin degradation, relative to Lgal), the “Proteolysis protection over the O-galactosylated linker (Lgal)” value came to 16 fold. In addition, at thermolysin (ratio of half-lives to thermolysin degradation, relative to Lglc), the “Proteolysis protection over the O-glucosylated linker (Lglc)” value is listed as 3 fold. Moreover, at thermolysin, the half-life turned out to be 164 ± 32.9 min; the “Half-life … Trial 1” value was found to be 163.9 min; the “Half-life … Trial 2” value worked out at 196.4 min; the “Half-life … Trial 3” value stood at 130.5 min.

Regarding GNPPGGNPPGTTTTRRPATTTGSSPGP-OH [LNG], at thermolysin, the half-life came to 1.5 ± 0.2 min; the “Half-life … Trial 1” value was found to be 1.6 min; the “Half-life … Trial 2” value was found to be 1.5 min; the “Half-life … Trial 3” value was determined as 1.2 min.
